Measurements published in patent US8183006B2, “Screening method for identifying new aminoacyl-tRNA synthetase inhibitors” (Fundacio Privada Parc Cientific de Barcelona, priority 2006, dated 2012).

Columns and labels:
[1] = tested on: isoleucyl-tRNA synthetases (IleRS) from Gram-positive infectious pathogens; conditions: cited from earlier work
[2] = limits use to topical applications; cited from earlier work
[3] = tested on: HeLa cells expressing S. pneumoniae editing-defective isoleucyl-tRNA synthetase (IleRSTA); assay: valine toxicity in transfected HeLa cells, cell death by propidium iodide staining (flow cytometry); format: cell-based, human; conditions: IleRSTA-expressing HeLa cells compared to wild type IleRS or GFP expressing HeLa cells; FIG. 2
Protocol: Cell death was measured by propidium iodide staining. Axis y represents the percentage of cell survival (abbreviated as “% C.S.”) and axis x represents the concentration of valine (mM).
For transient transfections, 20 μg of each DNA construct was added to 500 μl water containing 252 mM CaCl2. Then, 500 μl of 2×Hepes-buffered-saline buffer (280 mM NaCl, 10 mM KCl, 1.5 mM Na2HPO4, 50 mM HEPES, 12 mM dextrose, pH 7.1) was added to the DNA mixture drop by drop. 16 hours after adding this transfection mixture to the cells, the medium containing DNA was removed and new medium was added. After 24 hours, transfected cells were used for experimentation.
10 μg/ml propidium iodide was used for determination of cell viability in transiently GFP fusion proteins transfected HeLa cells. Stained cells were analyzed immediately using a Coulter Epics XL (Beckman Coulter) and analyzed using System II software.
To assess whether the expression S. pneumoniae mutated editing domain GFPIleRS has a toxic effect in a mammalian system in the presence of increasing concentrations of valine in the media, GFP, S. pneumoniae wild type (IleRS) and mutated editing domain (IleRSTA) were expressed in HeLa cells.

Row | SMILES | selectivity for pathogen vs. mammalian IleRS [1] [fold] | systemic bioavailability [2] | sensitivity to cell death (% cell survival) with increasing concentrations of valine in the media [3]
1 | C/C(=C\C(=O)OCCCCCCCCC(=O)O)C[C@@H]1OC[C@H](C[C@@H]2O[C@H]2[C@@H](C)[C@H](C)O)[C@@H](O)[C@H]1O [Pseudomonic acid] | ~8000 | lack of systemic bioavailability | –
2 | CC(C)[C@H](N)C(=O)O [valine] | – | – | higher sensitivity
